Measured values as given in paper PMC9309159, “Identification of heptapeptides targeting a lethal bacterial strain in septic mice through an integrative approach” (Signal Transduction and Targeted Therapy, 2022).
“Also recorded” adds a separate entry of the source.

Legend:
[1] = system: E. coli MSI001; test: In vivo antibacterial assay (blood CFU); design: species or system C57BL/6 mice; settings: MSI001 6 × 10^6 CFU/g i.p.; peptide 0.2 nmol/g tail vein 1 h later; blood CFU at 12 h; n = 8
Source text: (§1) Wild-type C57 mice were intraperitoneally injected with MSI001 bacteria (6 × 10^6 CFU/g body weight) to reproduce a sepsis model. […] Normal saline (NS) was used as control. […] One hour after CLP modeling, the mice were intravenously injected with LL37 or VTK-LL37 peptide at a dosage of 0.2 nmol/g body weight. Equal volume of normal saline (NS) was used as control. […] The mice were intraperitoneally injected with MSI001 bacteria. One hour later, the mice were subjected to tail vein injection (TVI) with VTK-LL37 (VTK-LL37 group), LL37 (LL37 group) or an equivalent volume of NS (sepsis group). Wild-type mice without modeling were used as controls (control group). The blood bacteria were quantitated as colony forming units (CFU) 12 h after injection of bacteria. n = 8. *P < 0.05, compared to control; ^#P < 0.05, compared to sepsis group^; ΔP < 0.05, compared to LL37 group. Results are expressed as the median with range. d Suppression of VTK-LL37 on the production of HMGB1 in the blood of septic mice. […] Twelve hours after bacterial injection, HMGB1 in the serum was quantitated by ELISA. n = 8. *P < 0.05, compared to control; ^#P < 0.05, compared to sepsis group; ^ΔP < 0.05, compared to LL37 group^. Results are expressed as the mean ± SD. e, f Protective effect of VTK-LL37 against organ damage in mice subjected to bacterial injection. […]

[2] = system: E. coli MSI001; test: Survival of mice subjected to septic modeling with MSI001; format: in vivo, C57BL/6 mice; settings: MSI001 6 × 10^6 CFU/g i.p.; peptide 0.2 nmol/g i.v. 1 h later; observed up to 168 h; Kaplan-Meier; n = 20
Source text: as §1

[3] = system: bacterial strain MSI001; test: In vitro antibacterial assay (colony counting); format: cell-based, Escherichia coli; settings: 1 × 10^3 CFU, peptide 0.25, 0.5, 1 μmol/L, 37 °C, 1-8 h, colony count, n = 3
Description: Fig. 6 Antimicrobial activity of the C7C-LL37 fusion peptides in vitro. a Primary structures and physical properties of the C7C and LL37 fusion peptides, including LL37, VTK-LL37, LL37-VTK, KYY-LL37 and LL37-KYY, ISS-LL37, INS-LL37. Net charge, PI and GRAVY values were acquired as described above. b Inhibitory effect of C7C-LL37 fusion peptides on bacterial growth. A C7C-LL37 fusion peptide or LL37 alone was added to the cultured bacterial strain MSI001 (1 × 10^3 CFU) at final concentrations of 0.25 μmol/L, 0.5 μmol/L and 1 μmol/L. Sterile DPBS was used as control. After incubation with the C7C-LL37 or LL37 peptides at 37 °C for different times (1-8 h), bacterial colonies were counted. n = 3. *P < 0.05, VTK-LL37 group compared to LL37 group; ^#P < 0.05, LL37-VTK group compared to LL37 group. c, d Inhibitory effect of VTK-LL37 on biofilm formation. The VTK-LL37 or LL37 peptide was added to the bacterial culture at a final concentration of 0-4 μmol/L and incubated at 37 °C for 3 days. Bacterial culture medium and the peptides were refreshed every day. The biofilm was stained with 1% crystal violet, and the precipitates were dissolved in 95% ethanol, followed by detection of absorbance at 570 nm (A570) (c). Moreover, the biofilm was observed under a microscope (d). n = 5. *P < 0.05, VTK-LL37 group compared to LL37 group […]

## CVTKLGSLCVPGVGLLGDFFRKSKEKIGKEFKRIVQRIKDFLRNLVPRTES [VTK-LL37]
[1]
  suppression of bacterial growth in blood of septic mice: stronger capability to suppress the bacterial growth of E. coli MSI001 in the blood of septic mice than LL37
[2]
  survival of septic mice: significantly increased the survival of septic mice
[3]
  inhibitory effect on bacterial growth of MSI001: inhibited MSI001 bacterial growth but also showed stronger antibiotic activity than LL37 alone in the early stage (1-3 h); also recorded: stronger bacteriostatic activity than other LL37 fusion peptides
